Test systems include M14; SF-295; IGROV-1; OVCAR-8; HOP-92; SW-620; SK-MEL-28; HCT-116; HOP-62; NCI-H226; RXF 393; SR; HT-29; A498; U-251; SK-MEL-2; SF-268; MDA-MB-231; LOX IMVI.
Assay in all cases: NCI tumour cell line growth inhibition, 48 h

We go through eleven compounds from ChEMBL document CHEMBL1201862, “PubChem BioAssay data set” (2004).

Each structure is given as a SMILES string.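 Interpolation was linear, between the two tested concentrations surrounding the appropriate level; five concentrations were tested over 48 hours in 96-well plates. GI50 = concentration required for 50% inhibition of growth.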 The source made the active and inactive calls. Cut-off read from the data, not from the text of the source: active = GI50 up to about 1.1 µM and inactive = higher.

As for `CNc1ncnc(Sc2nc(N)nc3[nH]cnc23)c1[N+](=O)[O-]`, the GI50 with M14 was 0.448 µM (active); with SF-295, 0.971 µM (active); with IGROV-1, 3.85 µM (inactive); with OVCAR-8, 0.622 µM (active); with HOP-92 it was 0.52 µM (active); in the assay on SW-620 it was 0.94 µM (active). Moreover, the GI50 in the assay with SK-MEL-28 is 8.2 µM (inactive); in the assay with HCT-116, 0.39 µM (active); in the assay on HOP-62 it was 0.675 µM (active); in the assay on NCI-H226 it was 5.7 µM (inactive); in the assay with RXF 393, 0.45 µM (active); with SR it was 0.1 µM (active). In addition, the GI50 is 1.09 µM (active) with HT-29; 17.9 µM (inactive) in the assay on A498; 4.42 µM (inactive) with U-251; 0.634 µM (active) with SK-MEL-2; 0.566 µM (active) with SF-268; 1.73 µM (inactive) with MDA-MB-231. Also, the GI50 in the assay with LOX IMVI is 0.189 µM (active).
With `C(=NCCN1CCOCC1)=NC1CCCCC1`, the GI50 in the assay with M14, with SF-295, in the assay with IGROV-1, in the assay with OVCAR-8, in the assay with HOP-92 and with SW-620 was > 100 µM (inactive) each time. In addition, the GI50 is > 100 µM (inactive) in the assay on SK-MEL-28; > 100 µM (inactive) in the assay on HCT-116; > 100 µM (inactive) in the assay on HOP-62; > 100 µM (inactive) in the assay on NCI-H226; > 100 µM (inactive) in the assay with RXF 393; 12.4 µM (inactive) in the assay on SR. The GI50 with HT-29, with A498, with U-251, in the assay with SK-MEL-2, in the assay with SF-268 and in the assay with MDA-MB-231 was > 100 µM (inactive) each time. Also, the GI50 in the assay on LOX IMVI was > 100 µM (inactive).
In the case of `COc1ccccc1N1C(=O)CC(=O)N(C(=O)CCCCCCCCC(=O)N2C(=O)CC(=O)N(c3ccccc3OC)C2=S)C1=S`, the GI50 is 69.7 µM (inactive) in the assay on M14; > 100 µM (inactive) with SF-295; 63.2 µM (inactive) in the assay on OVCAR-8; 59.2 µM (inactive) with HOP-92; > 100 µM (inactive) in the assay on SW-620; > 100 µM (inactive) in the assay with SK-MEL-28. Besides, the GI50 in the assay with HCT-116 is 56.9 µM (inactive); in the assay with HOP-62, > 100 µM (inactive); with NCI-H226, > 100 µM (inactive); in the assay with RXF 393 it was 99.3 µM (inactive); with SR, 28.4 µM (inactive); in the assay on HT-29, 49.4 µM (inactive). The GI50 in the assay with A498 is > 100 µM (inactive); in the assay with U-251, 70 µM (inactive); in the assay with SK-MEL-2, > 100 µM (inactive); with SF-268, > 100 µM (inactive); with MDA-MB-231, 43.7 µM (inactive); in the assay with LOX IMVI it was 95.3 µM (inactive).
`Cc1ccc(S(=O)(=O)C2=C(C(C)C)N=NC2(C)C)cc1`: the GI50 in the assay on M14 is > 100 µM (inactive); in the assay with SF-295, 71.8 µM (inactive); with IGROV-1 it was 91.4 µM (inactive); in the assay with OVCAR-8 it was > 100 µM (inactive); in the assay on HOP-92 it was 14.3 µM (inactive); in the assay with SW-620, > 100 µM (inactive). For the same compound, the GI50 in the assay with SK-MEL-28 is > 100 µM (inactive); with HCT-116, 65.5 µM (inactive); in the assay on HOP-62, > 100 µM (inactive); with NCI-H226, 61.8 µM (inactive); in the assay on RXF 393 it was 66.5 µM (inactive); in the assay on SR it was 29.3 µM (inactive). The GI50 in the assay on HT-29, in the assay on A498, in the assay with U-251, in the assay with SK-MEL-2, in the assay on SF-268 and in the assay on MDA-MB-231 was > 100 µM (inactive) throughout. Further, the GI50 in the assay on LOX IMVI is 88.9 µM (inactive).
On to `CO/N=C(\C)c1cccc(Nc2c3ccccc3nc3occc23)c1`, for which the GI50 in the assay with M14 was 8.97 µM (inactive); with SF-295, 5.46 µM (inactive); in the assay with IGROV-1, 5.05 µM (inactive); in the assay on OVCAR-8 it was 20 µM (inactive); in the assay on HOP-92 it was 14.3 µM (inactive); with SK-MEL-28, 5.35 µM (inactive). Also, the GI50 is 8.34 µM (inactive) in the assay on HCT-116; 6.37 µM (inactive) in the assay with HOP-62; 12 µM (inactive) in the assay on NCI-H226; 0.0454 µM (active) in the assay on RXF 393; 3.33 µM (inactive) in the assay on SR; 4.47 µM (inactive) in the assay on HT-29. For the same compound, the GI50 was 19.3 µM (inactive) in the assay on A498; 14.2 µM (inactive) in the assay with U-251; 3.56 µM (inactive) with SK-MEL-2; 11.2 µM (inactive) in the assay with SF-268; 9.79 µM (inactive) with MDA-MB-231; 10.4 µM (inactive) with LOX IMVI.
In the case of `COc1ccc(O)c(/C(C)=N/NC(=S)N(C)C)c1`, the GI50 in the assay on M14 is 11.8 µM (inactive); in the assay with SF-295 it was 31.3 µM (inactive); in the assay on IGROV-1, 14.3 µM (inactive); with OVCAR-8, 33.4 µM (inactive); in the assay with HOP-92, > 100 µM (inactive); in the assay on SW-620, 28.6 µM (inactive). Besides, the GI50 with SK-MEL-28 was 35.7 µM (inactive); in the assay with HCT-116 it was 19.6 µM (inactive); in the assay on HOP-62, 21.9 µM (inactive); in the assay on NCI-H226 it was 16.1 µM (inactive); with RXF 393, > 100 µM (inactive); in the assay on SR it was 25.8 µM (inactive). For the same compound, the GI50 in the assay with HT-29 was 0.0306 µM (active); in the assay with A498, > 100 µM (inactive); in the assay on U-251, > 36.6 µM (inactive); with SK-MEL-2, > 43.2 µM (inactive); in the assay with SF-268 it was 20.9 µM (inactive); in the assay with MDA-MB-231 it was > 20.6 µM (inactive). Also, the GI50 in the assay with LOX IMVI is 4.48 µM (inactive).
Regarding `COc1cc2c(cc1O)C(Cc1ccc(OCc3ccccc3)c(OCc3ccccc3)c1)N(C(=O)NCCc1ccccc1)CC2` (stereo unspecified), the GI50 in the assay with M14, in the assay on SF-295, in the assay with IGROV-1, in the assay on OVCAR-8, with HOP-92 and in the assay on SW-620 was > 100 µM (inactive) in each case. Further, the GI50 with HCT-116 was 45.1 µM (inactive); with HOP-62, > 100 µM (inactive); with NCI-H226 it was > 100 µM (inactive); in the assay with RXF 393, > 100 µM (inactive); in the assay with SR, 37.3 µM (inactive); in the assay on HT-29 it was > 100 µM (inactive). For the same compound, the GI50 is 78.5 µM (inactive) with A498; > 100 µM (inactive) in the assay with U-251; > 100 µM (inactive) with SK-MEL-2; > 100 µM (inactive) in the assay with SF-268; > 100 µM (inactive) in the assay on MDA-MB-231; > 100 µM (inactive) with LOX IMVI.
Take `c1csc(-c2nn3c(C45CC6CC(CC(C6)C4)C5)nnc3s2)c1`: the GI50 in the assay on M14, in the assay with SF-295, with IGROV-1, in the assay on OVCAR-8, with HOP-92 and in the assay with SW-620 was > 100 µM (inactive) throughout. The GI50 in the assay with SK-MEL-28, with HCT-116, in the assay on HOP-62, with NCI-H226, with RXF 393 and in the assay on SR was > 100 µM (inactive) in each case. Further, the GI50 with HT-29, in the assay with A498, with U-251, with SK-MEL-2, with SF-268 and with MDA-MB-231 was > 100 µM (inactive) throughout. The GI50 in the assay on LOX IMVI was > 100 µM (inactive).
On to `C/N=c1\sc2c(n1C)C(=O)c1ccccc1C2=O`, for which the GI50 in the assay with M14 was 1.5 µM (inactive); with SF-295, 1.54 µM (inactive); in the assay on IGROV-1, 6.78 µM (inactive); with OVCAR-8, 3.2 µM (inactive); in the assay with HOP-92 it was 10.3 µM (inactive); in the assay on SW-620 it was 2.09 µM (inactive). The GI50 in the assay on SK-MEL-28 is 1.96 µM (inactive); in the assay on HCT-116, 2.85 µM (inactive); in the assay with HOP-62 it was 1.76 µM (inactive); with NCI-H226, 2.34 µM (inactive); in the assay on RXF 393, 3.08 µM (inactive); in the assay with SR it was 3.75 µM (inactive). Also, the GI50 with HT-29 was 3.04 µM (inactive); in the assay on A498 it was 15.7 µM (inactive); in the assay on U-251, 2.55 µM (inactive); in the assay with SK-MEL-2, 2.08 µM (inactive); with SF-268, 3.85 µM (inactive); in the assay on MDA-MB-231 it was 12.2 µM (inactive). Moreover, in the assay with LOX IMVI, the GI50 is 1.27 µM (inactive).
For the compound `COc1ccc2nc3c(c(N)c2c1)C1CCC3C1(C)C` (stereo unspecified), the GI50 in the assay with M14 was 17.8 µM (inactive); in the assay with SF-295, 20.6 µM (inactive); in the assay with IGROV-1, 42.9 µM (inactive); with OVCAR-8 it was 71.1 µM (inactive); with HOP-92, 16.4 µM (inactive); in the assay on SW-620, 25.5 µM (inactive). Also, the GI50 is 30.8 µM (inactive) in the assay on SK-MEL-28; 32.4 µM (inactive) in the assay on HCT-116; 16 µM (inactive) in the assay with HOP-62; 25.3 µM (inactive) with NCI-H226; 23 µM (inactive) in the assay with RXF 393; 34.8 µM (inactive) in the assay with SR. Further, the GI50 in the assay on HT-29 was 23.8 µM (inactive); with A498, 25.1 µM (inactive); with U-251, 38.5 µM (inactive); in the assay on SK-MEL-2, 25.5 µM (inactive); in the assay with SF-268, 72.1 µM (inactive); in the assay on MDA-MB-231 it was 24 µM (inactive). Moreover, the GI50 in the assay with LOX IMVI was 35.9 µM (inactive).
For `Cc1ccc(S[C@@](C=O)(NC(=O)OCc2ccccc2)C(F)(F)F)cc1`, the GI50 with M14 is 29.1 µM (inactive); in the assay on SF-295 it was 31 µM (inactive); in the assay on IGROV-1, 18.5 µM (inactive); in the assay on OVCAR-8, 20.7 µM (inactive); in the assay on HOP-92, 22.9 µM (inactive); with SW-620, 21.8 µM (inactive). Besides, the GI50 in the assay on SK-MEL-28 was 25.3 µM (inactive); with HCT-116, 16.1 µM (inactive); in the assay with HOP-62, 29 µM (inactive); in the assay on NCI-H226 it was 18.6 µM (inactive); in the assay with RXF 393 it was 14.4 µM (inactive); in the assay with SR, 14.5 µM (inactive). Besides, the GI50 in the assay with HT-29 was 16.9 µM (inactive); with A498, 65 µM (inactive); in the assay with U-251 it was 17.6 µM (inactive); in the assay with SK-MEL-2, 25.8 µM (inactive); in the assay on SF-268, 22.6 µM (inactive); in the assay on MDA-MB-231, 19.6 µM (inactive). Also, the GI50 in the assay with LOX IMVI is 21.3 µM (inactive).
